According to patent US11376324B2, “Sting activating nanovaccine for immunotherapy” (The Board of Regents of the University of Texas System, priority 2016, dated 2022):

Columns and labels:
B16-OVA tumor = assay: B16-OVA melanoma tumor therapy; type: in vivo, C57BL/6 mice; conditions: peptide 0.5 μg, s.c. day 5 and booster 5 days later
Procedure: Six to eight week old mice (n=10 for each group) were injected subcutaneously with B16-OVA or B16F10 melanoma cells (1.5×10^5), or TC-1 cells (1.5×10^5), MC38 cells (5×10^5) into the right flank of mice. […] Or at day 3, 6, 9 and 12, some groups were i.p. injected with 200 μg checkpoint inhibitors (anti-mPD-1, BioXcell, BE0146) for comparison or synergy evaluation. The tumor growth was subsequently measured twice a week using a digital caliper and calculated as 0.5×length×width^2 by blinded investigators. Mice were killed when tumor […] reached 1500 mm^3, the end point of tumor detection is 2-fold of the longest survival time (LST) of control group, so around 40 days for melanoma tumor model, and around 60 days for TC-1 and MC38 tumor models.

IRF7 and CXCL10 = assay: q-RT-PCR of interferon-stimulated genes at injection site; type: in vivo, mice; conditions: local tissue after s.c. injection
Excerpt: Samples were run in triplicate.

[1] = Histology of major organs (H&E); type: in vivo, C57BL/6 mice; conditions: repeated injections, 10 μg OVA plus 150 μg
Procedure: FIG. 14. Histology analyses of major organs for safety assessment of PC7A nanovaccine. Representative H&E sections of the main organs from C57BL/6 mice after repeated injections of 10 μg OVA plus 150 μg PC7A NP or the same dose of Poly(I:C). Mice were sacrificed 24 h after the second injection (n=5 for each group).

Row | Substance | tumor growth inhibition / survival benefit (in words) (B16-OVA tumor) | IRF7 and CXCL10 expression, 2 to 8 h (IRF7 and CXCL10) | histology of major organs (liver, spleen, kidney, heart) [1]
1 | SIINFEKLTEWTSSNVMEERKIKV [OVA257-280] | did not offer any significant tumor growth inhibition or survival benefit over the PBS control | – | –
2 | Poly(I:C) | – | higher response in IRF7 and CXCL10 expressions in the early time points from 2 to 8 h than PC7A NP | ballooned hepatocytes indicative of steatohepatitis
